Data taken from US4305940A, “Benzamides with local anaesthetic and antiarrhythmic activity, salts, and method of preparation thereof and pharmaceutical compositions therefrom” (B.B.R. Boehringer Biochemia Robin S.p.A., priority 1979, dated 1981).
Counter-ions that a name gives are not always drawn.

Columns and labels:
[1] = test system: corneal reflux; assay: Surface anaesthesia (corneal reflux, conjunctival sac); details: for Surface anaesthesia DL50/CE50: analogous to therapeutic index, DL50 i.p.; for Surface anaesthesia CE50: concentration in percent achieving 50% of total responses, pH 7 saline, hydrochloride salts; for Surface anaesthesia activity with respect to lidocaine: lidocaine = 1
Description: (§1) The data reported hereinbelow relate in every instance to the hydrochloride salts of the individual compounds.
The surface anaesthesia has been determined in rabbits according to the method of M. R. A. Change and H. Lobstein (J. Pharmacol. Exper. Ther., 82, 203, 1944). The compounds dissolved in physiological saline solution of pH 7 were injected into the conjunctival sac and the corneal reflux was induced with the brush of Frey six times at intervals of five minutes for a total period of 40 minutes.

[2] = test system: reflux of contraction of the lower limbs (lumbar plexus); assay: Anaesthesia by conduction (lumbar plexus); type: in vivo, frogs; details: for Conduction anaesthesia DL50/t' / Conduction anaesthesia 1/t'max. (c = 1%) with respect to lidocaine: c = 1%; for Conduction anaesthesia DL50/t': DL50 i.p.; for Conduction anaesthesia 1/t'max. (c = 1%) with respect to lidocaine / Conduction anaesthesia DL50/t' relative to lidocaine: lidocaine = 1
Description: Anaesthesia by conduction has been determined on frogs according to the method of E. Bulbring and I. Wajda (Journal Pharmacol. Exper. Ther., 85, 78, 1945). The compounds dissolved in physiological saline solution are introduced into the cavity obtained by a transversal incision in the abdomen and separating the viscera in order to expose the lumbar plexus. The period of time necessary to eliminate the reflux of contraction of the lower limbs stimulated by immersion of both posterior legs into hydrochloric acid of increasing concentration between 0.05-0.1-0.2 N for a period not in excess of ten seconds, at intervals of one minute is determined. The extent of anaesthesia of conduction has been determined by measuring the period of time required for each compound in three different concentrations, 0.2%-0.5%-1.0% in order to abolish the reflex of contraction with the concentration of hydrochloric acid indicated hereinabove.

[3] = in vivo; details: rat, in vivo, ip; 5 days; hydrochloride salts; range in parentheses; read-out: DL50 i.p.
Description: (§2) The behavior of the animals has then been followed for a period of five days. The DL50 has been determined according to the method of I. T. Litchfield and F. Wilcoxon, (J. Pharmacol. Exper. Ther., 96, 99, 1949). The compound numbers in Table II correspond to the numbers in Table I.

[4] = test system: Swiss rats; assay: in vivo; details: lidocaine = 1
Description: as §2

[5] = test system: response to skin puncture; assay: Anaesthesia by infiltration (subcutaneous, back puncture); type: in vivo, guinea pigs; details: for Infiltration anaesthesia DL50/CE50: analogous to therapeutic index, DL50 i.p.; for Infiltration anaesthesia CE50: concentration in percent achieving 50% of total responses, hydrochloride salts; for Infiltration anaesthesia DL50/CE50 relative to lidocaine / Infiltration anaesthesia activity with respect to lidocaine: lidocaine = 1
Description: The anaesthesia by infiltration has been determined in guinea pigs according to the method of E. Bulbring and I. Wajda, (Journal of Pharmacol. Exper. Ther. 85, 78, 1945). In each experiment, four doses of the substance in 0.25 cc of physiological saline solution is injected subcutaneously on the back after removal of hair. After five minutes, each animal is punctured six times at intervals of […].
The test was repeated every five minutes for a period of 30 minutes. The extent of anaesthesia by infiltration was measured quantitatively by determining the sum of the instances in which the animal remained immobile during the thirty minute period on 36 possible blinks.

[6] = test system: aconitine-induced ventricular arrhythmia; assay: Anti-arrhythmic activity, aconitine infusion; type: in vivo, Wistar rats; details: 3 min before aconitine 10 mcg/kg/min
Description: as §1
This determination has been made in Wistar rats, anaesthetized with ethylurethane, (1 g/kg i.p.), according to the method of B. Vargaftig and J. L. Coigner (European Journal Pharmacology, 6, 49, 1969). The compounds dissolved in physiological saline solution, are injected intravenously three minutes prior to the infusion of aconitine, (10 mcg/kg/min.). The extent of anti-arrhythmic activity is determined quantitatively by determining the amount of aconitine necessary to induce ventricular arrhythmia.

Row | Compound | Surface anaesthesia DL50/CE50 [1] | Surface anaesthesia CE50 [1] | Surface anaesthesia activity with respect to lidocaine [1] | Conduction anaesthesia DL50/t' [2] | Conduction anaesthesia 1/t'max. (c = 1%) with respect to lidocaine [2] | Conduction anaesthesia DL50/t' relative to lidocaine [2] | LD50 at 120 h [3] | DL50 i.p. relative to lidocaine [4] | Infiltration anaesthesia DL50/CE50 [5] | Infiltration anaesthesia CE50 [5] | Infiltration anaesthesia DL50/CE50 relative to lidocaine [5] | Infiltration anaesthesia activity with respect to lidocaine [5] | Aconitine i.v. necessary to induce ventricular arrhythmia ([6]; 12.5 mg/kg i.v.) | Aconitine i.v. necessary to induce ventricular arrhythmia ([6]; 25.0 mg/kg i.v.) | Aconitine i.v. necessary to induce ventricular arrhythmia ([6]; 1.0 mg/kg i.v.) | Aconitine i.v. necessary to induce ventricular arrhythmia ([6]; 3.0 mg/kg i.v.) | Aconitine i.v. necessary to induce ventricular arrhythmia ([6]; 8.0 mg/kg i.v.)
1 | Cc1cccc(C)c1NC(=O)c1ccccc1CN1CCOCC1 [Compound 10] | 34 | 6.86% | 0.34 | 21 | 1.0 | 1.61 | 230 mg/kg | 1.62 | 98 | 2.34% | 0.52 | 0.32 |  |  |  |  | 
2 | CCN(CC)CC(=O)Nc1c(C)cccc1C [Lidocaine hydrochloride, reference compound] |  |  |  |  |  |  |  |  |  |  |  |  | 41 ± 4 µg/kg | 54 ± 5 µg/kg |  |  | 
3 | CCN(CC)Cc1ccc(C(=O)Nc2c(C)cccc2C)cc1 [Compound 3] | 17 | 4.78% | 0.48 | 9 | 1.2 | 0.69 | 82.5 mg/kg | 0.58 | 10 | 8.02% | 0.05 | 0.09 |  |  | 38 ± 5 µg/kg | 39 ± 6 µg/kg | 47 ± 7 µg/kg
4 | Cc1cccc(C)c1NC(=O)c1ccc(CN2CCCCC2)cc1 [Compound 9, 2,6-Dimethylanilide of 4-piperidinomethyl-benzoic acid] | 109 | 1.92% | 1.20 | 19 | 1.0 | 1.46 | 210 mg/kg | 1.48 | 750 | 0.28% | 3.97 | 2.67 |  |  |  |  | 
5 | Cc1cccc(C)c1NC(=O)c1ccc(CN2CCCC2)cc1 [Compound 6] | 13 | 16.03% | 0.14 | 107 | 5.5 | 8.31 | 215 mg/kg | 1.51 | 48 | 4.50% | 0.25 | 0.16 |  |  |  |  | 
6 | Cc1cccc(C)c1NC(=O)c1ccc(CN2CCOCC2)cc1 [Compound 12] | 82 | 2.82% | 0.82 | 57 | 2.7 | 4.46 | 230 mg/kg | 1.62 | 102 | 2.25% | 0.54 | 0.33 |  |  |  |  | 
